Measurements taken from patent publication US7754687B2, “Methods of inhibiting viral infection” (Mount Sinai School of Medicine, priority 2005, dated 2010).
Like-named read-outs stand apart in the source and are kept apart here. No end group written: not given here.

Key:
[1] = tested on: HIV-1VSV; format: cell-based
[2] = tested on: HIV-1BaL; experiment: HIV-1BaL replication in primary macrophages, p24 antigen ELISA; format: cell-based
[3] = tested on: HDAC; experiment: Effect of sodium butyrate on ProTα activity in macrophages carrying integrated HIV-1; format: cell-based; settings: data not presented
From the text: Moreover, both IkBα and ProTα can bind to HDAC and form intracellular complexes with DNA (51, 52). Therefore investigating the functions of these transcriptional factors and studying the competitive binding of HDAC to IkB and/or ProTα and chromatin immunoprecipitation studies may help to further reveal how ProTα inhibits HIV-1 transcription in primary macrophages.

[4] = tested on: HIV-1 lab isolates (HIV-1BaL and HIV-1IIIB) or HIV-1 primary isolates; experiment: HIV-1 replication in primary CD4+ cells (lab and primary isolates); format: cell-based; settings: primary CD4+ cells; data not presented
[5] = tested on: type one and/or two IFNs; experiment: Induction of type one and/or two IFN mRNA in primary macrophages; settings: 24 hr post treatment, data not presented
[6] = tested on: STAT2; experiment: STAT2 phosphorylation in treated macrophages; settings: supernatant 10% by volume, data not presented
[7] = tested on: dual tropic HIV-1 primary isolate; experiment: Replication of dual tropic HIV-1 primary isolate in primary macrophages, p24; format: cell-based; settings: 200 ng/ml, p24 day 15
[8] = tested on: HIVVSV; format: cell-based, HIV-1; settings: 200 ng/ml
[9] = tested on: PGK promoter; experiment: Luciferase reporter under PGK promoter (VVPW/LBE) in macrophages; format: cell-based; settings: 200 ng/ml at 48-72 hr post infection; 24 hr post treatment
From the text: (§1) Inhibition of HIV-1 Gene Transcription by ProTα is not Selective for the HIV-1 LTR Promoter. To determine whether the effect of ProTα on HIV-1 gene transcription is specific for the LTR promoter, the present inventors used two other HIV derived lentiviral vectors carrying luciferase reporter genes under control of PGK (phosphoglycerate kinase-VVPW/LBE) or CMV (cytomegalovirus-VVCW/LBE) promoters (kindly provided by Dr. L. Gusella). Macrophages were infected with HIV-1VSV carrying the luciferase gene, under the control of LTR, PGK or CMV promoters. At 48-72 hr post infection when viral integration is completed, ProTα at 200 ng/ml was introduced.

[10] = tested on: HIV-1JRFL; format: cell-based; settings: HeLa CD4+/CCR5+ cells
[11] = tested on: HIV-1JRFL; format: cell-based; settings: Hos CD4+/CCR5+ cells; data not presented
[12] = tested on: STAT1; experiment: STAT1 phosphorylation western blot, HeLa-CD4 cells; format: cell-based; settings: 15 min, ProTα 1 μg/mL or 10% conditioned medium
Description: (§2) Whole cell extract from macrophages and Hela cells treated with 10% cell conditioned medium from CD8+ cells, ProTα or medium was prepared by adding 1×SDS Sample buffer (100 ul per 6 well plate). For western blot analyses, protein samples were treated with 2.5 M DTT or 2.5% 2-mercaptoethanol and separated by SDS-Page 4-20% Tris-Glycine gradient gels (Novex-Invitrogen Calif.). Following separation by SDS-Page, the gel was blotted onto PVDF membrane (Novex-Invitrogen San-Diego, Carlsbad, Calif.). After blocking with 5% nonfat milk the membrane was incubated with 1/1000 dilution of anti P-STAT-1 (Tyr701) (Cell Signaling Technology) for 24 hr at 4° C. in PBS. The membrane was washed in PBS with 0.05% Tween 20 and treated with 1/2000 diluted anti-rabbit antibodies labeled with horseradish […] (Amersham pharmacia UK). The membrane was washed in PBS with 0.05% tween 20 and Western blot chemiluminescence reagent was added.
(§3) To establish whether ProTα also induces STAT1 activation in primary macrophages and HeLa-CD4 cells, such cells were briefly (15 min) incubated with ProTα protein at 1 μg/mL or 10% cell conditioned medium after incubation for 2 hr in serum free medium to reduce baseline phosphorylation. A western blot of the electrophoresed total lysate of treated and untreated cells was probed with an antibody specific for STAT1 phosphorylated at tyrosine 701 (FIG. 8).

[13] = tested on: mC2,C3-Ba-L; experiment: Replication of LTR-mutated mC2,C3-Ba-L in primary macrophages, p24; format: cell-based, HIV-1; settings: 200 ng/ml, p24 days 6-10, 3 donors
[14] = tested on: IkBα protein; experiment: IkBα protein level in the nucleus of macrophages; format: cell-based; settings: 1 hr post treatment, data not presented
[15] = tested on: CMV promoter; experiment: Luciferase reporter under CMV promoter (VVCW/LBE) in macrophages; format: cell-based; settings: 200 ng/ml at 48-72 hr post infection; 24 hr post treatment
From the text: as §1

[16] = tested on: IkBα mRNA; experiment: IkBα mRNA by real time PCR in macrophages carrying integrated HIV; format: cell-based; settings: data not presented
Description: (§4) RNA was isolated from macrophages infected with HIVVSV for 72 hr and treated with medium alone or ProTα 24 hr post treatment using Absolutely RNA kit (Stratagene). Real time PCR was done at Mount Sinai Medical Center Core Facility using following primers: […]
for IkB sense-[…] anisense-[…].
(§5) Each assay was performed in triplicate. Quantification of each PCR product was expressed relative to -actin.

[17] = tested on: CCR5 tropic HIV-1 primary isolates; experiment: Replication of CCR5 HIV-1 primary isolate in primary macrophages, p24; format: cell-based; settings: 200 ng/ml, p24 day 15
[18] = tested on: HIV-1JRFL; format: cell-based; settings: primary macrophages
[19] = tested on: HIV-1 LTR controlled luciferase reporter gene mRNA; experiment: Real time RT-PCR of luciferase reporter gene mRNA in HIV-1VSV infected macrophages; format: cell-based; settings: 200 ng/ml for 24 hr; 72 hr post infection; vs control medium
Description: as §4
for Luciferase reporter gene: sense-[…] antisense-[…].
as §5

[20] = tested on: STAT1; experiment: STAT1 phosphorylation western blot, primary macrophages; format: cell-based; settings: 15 min, ProTα 1 μg/mL or 10% conditioned medium
Description: as §2, §3

## Cc1cn([C@H]2C[C@H](N=[N+]=[N-])[C@@H](CO)O2)c(=O)[nH]c1=O [AZT, azidothymidine, reference compound]
[1]
  effect on HIV-1 gene expression (luciferase): no effect

## O=C(O)C(=O)CC(=O)c1cccn1Cc1ccc(F)cc1 [L-731 988, reference compound]
[1]
  effect on HIV-1 gene expression (luciferase): no effect
[2]; added at 2 hr post infection, replication competent viruses
  suppression of virus replication by integrase inhibitor: did not completely suppress virus replication

## CCCC(=O)[O-].[Na+] [sodium butyrate]
[3]
  reduction in ProTα activity: 70-80%

## prothymosin alpha [ProTα]
[4]
  suppression of replication: varying from 30-40% suppression to no suppression
[1]
  effect on HIV-1 gene expression (luciferase): inhibit HIV-1 gene expression
  expression of luciferase reporter gene from LTR promoter: inhibited expression
  reduction of HIV-1 gene expression: 80%
[5]
  induction of type one and/or two IFN mRNA: no induction
[6]
  STAT 2 phosphorylation: did not induce STAT 2 phosphorylation
[7]
  replication of dual tropic HIV-1 primary isolate: inhibited replication
[8]; DCs treated 2 hr post infection
  reduction of expression of the reporter gene luciferase: 90%
[8]; DCs treated 72 hr post infection
  inhibition of integrated proviral HIV-1: 65-75%
[9]
  expression of luciferase reporter gene from PGK promoter: inhibited expression
[10]
  anti-HIV-1JRFL activity: did not, however, exhibit anti-HIV-1JRFL activity
[11]
  anti-HIV-1JRFL activity: did not, however, exhibit anti-HIV-1JRFL activity
[12]
  phosphorylation state of STAT1 (Tyr701): no effect
[13]
  suppression of mutated (LTR) virus replication: 60-80%
[14]
  level of IkBα protein in the nucleus: increased substantially
[15]
  expression of luciferase reporter gene from CMV promoter: inhibited expression
[16]
  induction of IkBα mRNA: 10 fold
[2]; 2 ng/mL rProTα, primary macrophages
  reduction of viral p24 antigen: greater than 80%
[2]; primary macrophages, 200 ng/ml, p24 days 6-10, 3 donors
  inhibition of wild type (LTR) virus: 90-95%
[2]; primary macrophages, dose response
  suppression of HIV-1BaL replication as measured by HIV-1 p24 antigen: dosage dependent suppression
[17]
  replication of CCR5 HIV-1 primary isolate: inhibited replication
[18]; dose response
  inhibition of the luciferase reporter gene of HIV-1JRFL: dose dependent inhibition
[18]; luciferase 72 hr post infection
  concentration at which anti-HIV-1 activity was exhibited (as low as): 20 ng/mL
[19]
  suppression of LTR controlled luciferase reporter gene mRNA levels: 80%
[20]
  phosphorylation state of STAT1 (Tyr701): no effect

## thymosin alpha 1 (Ac-SDAAVDTSSEITTKDLKEKKEVVEEAEN; UniProt P06454 2-29, looked up, fragment) [Tα1, chemically synthesized peptide homologous to the first 28 amino acids of ProTα, reference compound]
[18]; up to 1 μg/mL
  activity against the HIVJRFL expressing luciferase reporter gene: no activity
